Active and inactive are the calls of the source. The rule behind the calls is not given here.
Assays:
[1] = tested on: HCT-116; assay: cells; details: Homo sapiens, HCT-116, 48 h
Description: Antiproliferative activity against human HCT-116 cells assessed as inhibition of cell growth incubated for 48 hrs by MTT assay

[2] = tested on: MGC-803; assay: cells; details: Homo sapiens, MGC-803, 48 h
Description: Antiproliferative activity against human MGC-803 cells assessed as inhibition of cell growth incubated for 48 hrs by MTT assay

[3] = tested on: KYSE-450; assay: cells; details: Homo sapiens, KYSE-450, 48 h
Description: Antiproliferative activity against human KYSE-450 cells assessed as inhibition of cell growth incubated for 48 hrs by MTT assay

[4] = tested on: MGC-803; assay: Antitumor activity against human MGC-803 cells xenografted in BALB/c nude mouse assessed as tumor growth inhibition at 25 mg/kg/day, ip administered every day for 21 days; type: functional, organism-based; details: time 21.0 day
[5] = tested on: MGC-803; assay: Antitumor activity against human MGC-803 cells xenografted in BALB/c nude mouse assessed as reduction in tumor volume at 25 mg/kg/day, ip administered every day for 21 days; type: functional, organism-based; details: time 21.0 day
[6] = tested on: MGC-803; assay: Antitumor activity against human MGC-803 cells xenografted in BALB/c nude mouse assessed as reduction in tumor weight at 25 mg/kg/day, ip administered every day for 21 days; type: functional, organism-based; details: time 21.0 day
[7] = biological target: Lysine-specific histone demethylase 1A (Homo sapiens, UniProt O60341); assay: Inhibition of recombinant LSD1 (unknown origin) using H3K4me2 peptide as substrate preincubated for 10 mins followed by substrate addition and measured after 30 mins by amplex red based fluorescence microplate reader analysis

SMILES | IC50 [1] [nM] | IC50 [2] [nM] | IC50 [3] [nM] | IC50 [7] [nM] | Activity [4] | Activity [5] | Activity [6]
CCOC(=O)N1CCN(C(=S)SCC(=O)N(Cc2ccc(OC)c(O)c2)c2cc(OC)c(OC)c(OC)c2)CC1 | 89 | 79 | 69 | – | – | – | –
COc1cc2c(c(OC)c1OC)-c1ccc(OC)c(=O)cc1[C@@H](NC(C)=O)CC2 [COLCHICINE] | 78 | 56 | 70 | – | – | – | –
NC1CCC(N[C@@H]2C[C@H]2c2ccccc2)CC1 (stereo not given in full) | > 20000 | > 20000 | > 20000 | – | – | – | –
COc1ccc(CN(C(=O)CSC(=S)N2CCC(OC)CC2)c2cc(OC)c(OC)c(OC)c2)cc1O | 600 | 1260 | 890 | – | – | – | –
COc1ccc(/C=C\c2cc(OC)c(OC)c(OC)c2)cc1O | – | – | – | – | Active | Active | Active
CCCCN1CCN(C(=S)SCC(=O)N(Cc2ccc(OC)c(O)c2)c2cc(OC)c(OC)c(OC)c2)CC1 | 97 | 30 | 73 | – | – | – | –
COc1ccc(CN(C(=O)CSC(=S)N2CCN(c3ccc(Cl)cc3)CC2)c2cc(OC)c(OC)c(OC)c2)cc1O | 59 | 38 | 45 | – | – | – | –
COc1ccc(CN(C(=O)CSC(=S)N2CCN(C3CC3)CC2)c2cc(OC)c(OC)c(OC)c2)cc1O | 480 | 120 | 210 | – | – | – | –
COc1ccc(CN(C(=O)CSC(=S)N2CCN(C(C)=O)CC2)c2cc(OC)c(OC)c(OC)c2)cc1O | – | 460 | 340 | – | – | – | –
COC(=O)C1CCN(C(=S)SCC(=O)N(Cc2ccc(OC)c(O)c2)c2cc(OC)c(OC)c(OC)c2)CC1 | 230 | 310 | 280 | – | – | – | –
C/C=C/C(=O)N(Cc1ccc(OC)c(O)c1)c1cc(OC)c(OC)c(OC)c1 | 54 | 28 | 62 | – | – | – | –
COc1ccc(CN(C(=O)CSC(=S)N2CCC(C)CC2)c2cc(OC)c(OC)c(OC)c2)cc1O | 890 | 380 | 860 | – | – | – | –
COc1ccc(CN(C(=O)CSC(=S)N2CCCC(C)C2)c2cc(OC)c(OC)c(OC)c2)cc1O (stereo not given) | 640 | 480 | 530 | – | – | – | –
COc1ccc(CN(C(=O)CSC(=S)N2CCN(C=O)CC2)c2cc(OC)c(OC)c(OC)c2)cc1O | 120 | 190 | 210 | – | – | – | –
COc1ccc(CN(C(=O)CSC(=S)N2CCN(C(C)(C)C)CC2)c2cc(OC)c(OC)c(OC)c2)cc1O | 620 | 430 | 700 | – | – | – | –
COc1ccc(CN(C(=O)CSC(=S)N2CCN(C(=O)C3CC3)CC2)c2cc(OC)c(OC)c(OC)c2)cc1O | 100 | 120 | 200 | – | – | – | –
COc1ccc(CN(C(=O)CSC(=S)N2CCN(c3ccccc3OC)CC2)c2cc(OC)c(OC)c(OC)c2)cc1O | 240 | 120 | 320 | – | – | – | –

Continued by falling IC50 [2], values first:

IC50 [1] [nM] | IC50 [2] [nM] | IC50 [3] [nM] | IC50 [7] [nM] | SMILES | Activity [4] | Activity [5] | Activity [6]
12800 | 2810 | > 20000 | – | Cc1ccc(Cn2cc(CSC(=S)N3CCN(C(=O)OC(C)(C)C)CC3)nn2)cc1 | – | – | –
690 | 700 | 670 | – | CCOC(=O)C1CCN(C(=S)SCC(=O)N(Cc2ccc(OC)c(O)c2)c2cc(OC)c(OC)c(OC)c2)CC1 | – | – | –
800 | 560 | 460 | – | COc1ccc(CN(C(=O)CSC(=S)N2CCC(O)CC2)c2cc(OC)c(OC)c(OC)c2)cc1O | – | – | –
520 | 540 | 490 | – | COc1ccc(CN(C(=O)CSC(=S)N2CCN(CCO)CC2)c2cc(OC)c(OC)c(OC)c2)cc1O | – | – | –
170 | 340 | 380 | – | COc1ccc(CN(C(=O)CSC(=S)N2CCC(c3ccccc3)CC2)c2cc(OC)c(OC)c(OC)c2)cc1O | – | – | –
820 | 270 | 750 | – | COc1ccc(CN(C(=O)CSC(=S)N2CCN(C)CC2)c2cc(OC)c(OC)c(OC)c2)cc1O | – | – | –
– | 250 | 310 | – | CCN1CCN(C(=S)SCC(=O)N(Cc2ccc(OC)c(O)c2)c2cc(OC)c(OC)c(OC)c2)CC1 | – | – | –
500 | 230 | 430 | – | COc1ccc(CN(C(=O)CSC(=S)N2CCN(S(C)(=O)=O)CC2)c2cc(OC)c(OC)c(OC)c2)cc1O | – | – | –
110 | 180 | 200 | – | COc1ccc(CN(C(=O)CSC(=S)N2CCC(C(=O)OC(C)(C)C)CC2)c2cc(OC)c(OC)c(OC)c2)cc1O | – | – | –
160 | 140 | 160 | – | COC(=O)N1CCN(C(=S)SCC(=O)N(Cc2ccc(OC)c(O)c2)c2cc(OC)c(OC)c(OC)c2)CC1 | – | – | –
160 | 100 | 170 | – | COc1ccc(CN(C(=O)CSC(=S)N2CCN(C(C)C)CC2)c2cc(OC)c(OC)c(OC)c2)cc1O | – | – | –
220 | 84 | 78 | 2670 | COc1ccc(CN(C(=O)CSC(=S)N2CCN(C(=O)OC(C)(C)C)CC2)c2cc(OC)c(OC)c(OC)c2)cc1O | – | – | –
100 | 78 | 86 | – | COc1ccc(CN(C(=O)CSC(=S)N2CCN(c3ccc(O)cc3)CC2)c2cc(OC)c(OC)c(OC)c2)cc1O | – | – | –
150 | 75 | 59 | – | COc1cccc(N2CCN(C(=S)SCC(=O)N(Cc3ccc(OC)c(O)c3)c3cc(OC)c(OC)c(OC)c3)CC2)c1 | – | – | –
78 | 62 | 52 | – | COc1ccc(CN(C(=O)CSC(=S)N2CCN(c3ccccc3)CC2)c2cc(OC)c(OC)c(OC)c2)cc1O | – | – | –
67 | 54 | 72 | – | COc1ccc(CN(C(=O)CSC(=S)N2CCN(c3ccc([N+](=O)[O-])cc3)CC2)c2cc(OC)c(OC)c(OC)c2)cc1O | – | – | –
59 | 45 | 67 | – | COc1ccc(N2CCN(C(=S)SCC(=O)N(Cc3ccc(OC)c(O)c3)c3cc(OC)c(OC)c(OC)c3)CC2)cc1 | – | – | –
46 | 39 | 67 | – | COc1ccc(CN(C(=O)CSC(=S)N2CCN(c3ccc(F)cc3)CC2)c2cc(OC)c(OC)c(OC)c2)cc1O | – | – | –
51 | 27 | 36 | – | COc1ccc(CN(C(=O)CSC(=S)N2CCN(c3ccc(Br)cc3)CC2)c2cc(OC)c(OC)c(OC)c2)cc1O | – | – | –
79 | 26 | 37 | – | COc1ccc(CN(C(=O)CSC(=S)N2CCN(c3ccc(C#N)cc3)CC2)c2cc(OC)c(OC)c(OC)c2)cc1O | – | – | –

— ChEMBL document CHEMBL5346930, “Discovery of novel N-benzylarylamide-dithiocarbamate based derivatives as dual inhibitors of tubulin polymerization and LSD1 that inhibit gastric cancers” (Eur J Med Chem, 2023)
